Among the data in patent publication US12600696B2 (XENIOPRO GMBH, priority 2017, dated 2026) are fold induction and activity values, retold here.

Structures are written as SMILES.

What all share (type): cell-based
Test [1] concerns Notch signaling (hNotch1ΔE, human Notch1 receptor) in HeLa cells. Description: Notch reporter assay (luciferase luminescence readout in transfected HeLa cells). The following applies: Homo sapiens, 20 hours, relative to DMSO baseline level of 1.0, read-out: AVEw, weighted arithmetic mean of double-normalized Notch-reporter luciferase luminescence values (Activity Range). A digest of the protocol: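 HeLa cells were transiently transfected for 24 h with membrane-tethered constitutively active hNotch1ΔE, a CSL-promoter Firefly luciferase reporter and constitutive SV40-Renilla luciferase. Compounds were then applied at 10 μM (0.1% DMSO) for 20 h. Firefly/Renilla dual-luciferase ratios were normalized to DMSO control (baseline 1.0), outliers were excluded, and replicate values were averaged across ≥3 independent experiments.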
On the technique in general: In a reporter assay the amount or activity of a reporter protein is the signal.

For test [2], the system named is HPEKp cells (human epidermal keratinocyte progenitors, pooled). Put plainly: alamarBlue proliferation assay with HPEKp cells. As to conditions: 120 h, relative to DMSO basis level 1.0, read-out: weighted arithmetic mean (AVEw) of normalized fluorescence intensity, activity range. How it is done:
(§1) The antiproliferative activities of compounds falling under formula I, formula II, formula III, formula IV and formula V were investigated on cells or cell lines originating from a disorder of the myeloid cell compartment, the neuroendocrine system, the cervix, and the mucosal epithelium, as well as from the skin epithelium. To this end, HL-60 cells, TT cells, HeLa cells, CAL-27 cells and human primary epidermal keratinocytes (HPEK) were seeded into 96-well plates suitable for fluorescence assays (CORNING #3598) at following initial cell numbers: 1000 cells per well for HL-60; 9000 cells per well for TT; 2000 cells per well for HeLa, 2000 cells per well for CAL-27, 2000 cells per well for HPEK. The cells were treated with compounds at indicated final concentrations (diluted from the 1000× stock-solutions in DMSO to a final DMSO concentration of 0.1% v/v) or with the empty carrier DMSO at 0.1% v/v as control for 5 days. At day 5 after starting the treatments the cells were subjected to the alamarBlue® Proliferation Assay (Bio-Rad Serotec GmbH, BUF012B) according to the protocol of the manufacturer. The readout was taken with a multi-well plate-reader in the fluorescence mode with applying a filter for excitation at 560 nm (band width 10 nm) and for emission at 590 nm (band width 10 nm). Resveratrol (RES) treatment was included as control for growth inhibition.
(§2) The assays were performed in duplicate or more replicates of independent single experiments each containing a six-fold replicate for every condition. For every individual plate, the measured fluorescence intensity values of the conditions with compound treatment were normalized against the corresponding equally weighted arithmetic mean of the fluorescence intensity values of the six DMSO treated control wells in order to obtain the relative values to a baseline level of 1.0. The statistical calculations were performed in analogy to the luciferase assay as described above. To this end, two independent outlier analyses were performed according to the methods by Peirce and Chauvenet (Ross, Journal of Engineering Technology 2003, 1-12). Outliers confirmed by at least one of the methods were excluded from the calculations but not more than one value out of six per compound within a single experiment. The weighted arithmetic mean AVEw for each compound was calculated from the normalized values over all independent replicates of the single experiments comprising the six replicates each. The corresponding standard deviation for the weighted arithmetic mean was calculated according to the method described by Bronstein et al. (Bronstein, Semendjajew, Musiol, Mühlig, Taschenbuch der Mathematik, 5th edition 2001 (German), publisher: Verlag Harri Deutsch, Frankfurt am Main and Thun) and was combined with the Gauß′ error propagation associated with the performed calculation for the normalization. The resulting standard deviation is herein referred to as “combined standard deviation”.
HPEKp cells were cultivated according to the protocol of the provider in CnT-Prime epithelial culture medium (CELLnTEC, #CnT-PR, a fully defined, low calcium formulation, completely free of animal or human-derived components) without addition of further components.
(§3) A compound is considered as a growth inhibitor of HPEKp cells, if—at a reference concentration of 10 μM—the weighted arithmetic mean of the normalized fluorescence intensity values after addition of the corresponding combined standard deviation amounts to 0.9 or lower, in particular to 0.8 or lower, 0.7 or lower, 0.6 or lower, 0.4 or lower, and 0.2 or lower, relative to the overall basis level of 1.0. The overall basis level was calculated as the weighted arithmetic mean of all normalized values from the DMSO control measurements in analogy to the calculations performed for the test-compounds. The corresponding combined standard deviation for the DMSO values amounts to less than 1·10^−2.
(In general: The colour change of resazurin is a common sign of viable cells or microbes.)

In test [3] the test system is HL-60 cells (human acute myeloid leukemia cells). Description: alamarBlue proliferation assay with HL-60 cells. As to conditions: 120 h, 5 days, relative to DMSO baseline level of 1.0, read-out: AVEw, weighted arithmetic mean of normalized fluorescence intensity values (Activity Range), HL-60 proliferation. The method in brief:
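HL-60 cells (1000/well, RPMI 1640 + 10% FBS) exposed to compound in 0.1% DMSO for 5 days, then alamarBlue fluorescence read (ex 560/em 590 nm). Signals normalized to six DMSO wells per plate (baseline 1.0); outliers removed by Peirce/Chauvenet; weighted mean with combined SD; inhibitor criterion judged at 20 μM reference concentration.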

Test [4] has as its system CAL-27 cells (human tongue squamous cell carcinoma cells). Description: alamarBlue proliferation assay with CAL-27 cells. The following applies: Homo sapiens, 120 h; for activity at 20 µM: 5 days, relative to DMSO baseline level of 1.0, read-out: AVEw, weighted arithmetic mean of normalized fluorescence intensity values (Activity Range), CAL-27 proliferation. How it is done:
as §1, §2
CAL-27 cells were cultivated according to the protocol of the provider (but at 5% instead of 10% CO2) in DMEM medium (Fisherscientific, #11584456) containing 10% fetal bovine serum (Fisherscientific, #15517589).
as §3, with “of CAL-27” for “of HPEKp”, “of 20” for “of 10”

`O=C(O)c1ccc(Oc2ccc(C3C[C@@H]4CC[C@H]3C4)cc2)nc1` (stereo partly drawn) [Compound 086, 6-(4-((1S,4R)-bicyclo[2.2.1]heptan-2-yl)phenoxy)nicotinic acid]: the fold induction at 10 µM in test [1] was 1.1 to 1.2. Further, the activity at 10 µM in test [2] is 60 to 70%.
As to `COC(=O)c1ccc(Oc2ccc(C3C[C@@H]4CC[C@H]3C4)cc2)nc1` (stereo partly drawn) [Compound 112, methyl 6-(4-((1S,4R)-bicyclo[2.2.1]heptan-2-yl)phenoxy)nicotinate], the activity at 10 µM in test [2] lay in the range of 40 to 60%.
The same measure, in the same setting: to `CCCc1ccc(Oc2ccc(C(N)=O)cc2)cc1` [Compound 140, 4-(4-propylphenoxy)benzamide] belongs 80 to 90%.
For `O=C(NO)c1ccc(Oc2ccc(C3CC4CCC3CC4)cc2)cc1` (centres unmarked) [Compound 185, 4-(4-((1s,4s)-bicyclo[2.2.2]octan-2-yl)phenoxy)-N-hydroxybenzamide], the activity at 20 µM in test [3] and in test [4] was 0 to 20% each time. The activity at 10 µM in test [2] lay in the range of 0 to 20%.
As for `CCc1ccc(Oc2ccc(C(=O)NC)cc2)cc1` [Compound 190, 4-(4-ethylphenoxy)-N-methylbenzamide], in test [2], the activity at 10 µM lay in the range of 60 to 70%.
Still for that read-out and setting: next, `CNC(=O)c1ccc(Oc2ccc(C3CC4CCC3CC4)cc2)nc1` (centres unmarked) [Compound 312, 6-(4-((1s,4s)-bicyclo[2.2.2]octan-2-yl)phenoxy)-N-methylnicotinamide]: 70 to 80%.
For `CCC(C)(C)c1ccc(Oc2ccc(C(=O)N(C)C)cn2)cc1` [Compound 323, N,N-dimethyl-6-(4-(tert-pentyl)phenoxy)nicotinamide], the fold induction at 10 µM in test [1] was 1.1 to 1.2. In addition, the activity at 20 µM in test [3] was 40 to 60%. Also, the activity at 10 µM in test [2] is 70 to 80%.
For the compound `CCC(C)(C)c1ccc(Oc2ccc(C(=O)OC)cc2F)cc1` [Compound 374, methyl 3-fluoro-4-(4-(tert-pentyl)phenoxy)benzoate], the fold induction at 10 µM in test [1] lay in the range of 1.1 to 1.2. Further, the activity at 20 µM in test [3] fell in the range of 80 to 90%. In addition, the activity at 10 µM in test [2] fell in the range of 80 to 90%.
Take `COC(=O)c1ccc(Oc2ccc(C34CC5CC(CC(C5)C3)C4)cc2)c(F)c1` [Compound 389, methyl 4-(4-((3r,5r,7r)-adamantan-1-yl)phenoxy)-3-fluorobenzoate]: in test [3], the activity at 20 µM was 40 to 60%. In addition, in test [2], the activity at 10 µM was 20 to 40%.
`CC(C)(C)c1ccc(Oc2ncc(C(=O)O)cc2F)cc1` [Compound 424, 6-(4-(tert-butyl)phenoxy)-5-fluoronicotinic acid]: the activity at 10 µM in test [2] was in the range of 70 to 80%.
Take `O=C(O)c1cnc(Oc2ccc(C34CC5CC(CC(C5)C3)C4)cc2)c(F)c1` [Compound 440, 6-(4-((3r,5r,7r)-adamantan-1-yl)phenoxy)-5-fluoronicotinic acid]: in test [3], the activity at 20 µM is 70 to 80%. The activity at 10 µM in test [2] was in the range of 20 to 40%.
For the compound `CCOC(=O)c1ccc(Oc2ccc(C3(C(F)(F)F)CC3)cc2)cc1` [Compound 721, ethyl 4-(4-(1-(trifluoromethyl)cyclopropyl)phenoxy)benzoate], the fold induction at 10 µM in test [1] lay within 1.1 to 1.2. Also, in test [3], the activity at 20 µM lay in the range of 40 to 60%. For the same compound, the activity at 10 µM in test [2] was in the range of 70 to 80%.
On to `CCOC(=O)c1ccc(Oc2ccc(C3(C(F)(F)C(F)(F)F)CC3)cc2)cc1` [Compound 722], for which the activity at 20 µM in test [3] is 40 to 60%. Moreover, the activity at 40 µM in test [4] (40 μM, relative to DMSO basis level 1.0, read-out: weighted arithmetic mean (AVEw) of normalized fluorescence intensity, activity range) lay within 70 to 80%. Further, the activity at 10 µM in test [2] lay within 40 to 60%.
`O=C(O)c1ccc(Oc2ccc(C3(C(F)(F)C(F)(F)F)CC3)cc2)nc1` [Compound 731]: in test [3], the activity at 20 µM is 80 to 90%. In addition, the activity at 10 µM in test [2] was in the range of 80 to 90%.
For the compound `COC(=O)c1ccc(Oc2ccc(C3(C(F)(F)F)CC3)cc2Cl)nc1` [Compound 747, methyl 6-(2-chloro-4-(1-(trifluoromethyl)cyclopropyl)phenoxy)nicotinate], the activity at 10 µM in test [2] is 80 to 90%.
Turning to `CCOC(=O)c1ccc(Oc2ccc(C3(C(F)(F)C(F)(F)F)CC3)cc2)nc1` [Compound 749, Ethyl 6-(4-(1-(perfluoroethyl)cyclopropyl)phenoxy)nicotinate], in test [2], the activity at 10 µM lay within 80 to 90%.
Still for that read-out and setting: next, `NC(=O)c1ccc(Oc2ccc(C3(C(F)(F)F)CC3)cc2Cl)nc1` [Compound 801, 6-(2-chloro-4-(1-(trifluoromethyl)cyclopropyl)phenoxy)nicotinamide]: 80 to 90%.
On to `O=C(NO)c1ccc(Oc2ccc(C3(C(F)(F)F)CC3)cc2Cl)nc1` [Compound 810, 6-(2-chloro-4-(1-(trifluoromethyl)cyclopropyl)phenoxy)-N-hydroxynicotinamide], for which the activity at 20 µM in test [3] and in test [4] was 0 to 20% each time. Also, the activity at 10 µM in test [2] fell in the range of 0 to 20%.
Take `CNC(=O)c1ccc(Oc2ccc(C3(C(F)(F)F)CC3)cc2Cl)nc1` [Compound 819]: the activity at 20 µM in test [3] lay in the range of 80 to 90%. Moreover, the activity at 10 µM in test [2] was in the range of 70 to 80%.
For the compound `CN(C)C(=O)c1ccc(Oc2ccc(C3(C(F)(F)F)CC3)cc2)nc1` [Compound 820, N,N-Dimethyl-6-(4-(1-(trifluoromethyl)cyclopropyl)phenoxy)-nicotinamide], the fold induction at 10 µM in test [1] fell in the range of 1.4 to 1.7. Besides, the activity at 20 µM was in the range of 40 to 60% in test [3] and 80 to 90% in test [4].
For the compound `CN(C)C(=O)c1ccc(Oc2ccc(C3(C(F)(F)F)CC3)cc2Cl)nc1` [Compound 828, 6-(2-chloro-4-(1-(trifluoromethyl)cyclopropyl)phenoxy)-N,N-dimethylnicotinamide], the activity at 20 µM in test [3] fell in the range of 60 to 70%. In addition, in test [2], the activity at 10 µM lay in the range of 70 to 80%.
